Measured values from patent publication US20090215755A1, “USE OF A PYRAZOLE DERIVATIVE FOR PREPARING MEDICINAL PRODUCTS THAT ARE USEFUL IN THE PREVENTION AND TREATMENT OF DYSLIPIDAEMIAS AND OF DISEASES RELATED TO DYSLIPIDAEMIAS AND/OR TO OBESITY” (SANOFI-AVENTIS, priority 2003, published 2009).
Marks after values point to notes of the source that are not given here.

Tests used:
obese mice = test: Action of rimonabant on blood lipid levels in obese mice (2 months of treatment); format: in vivo; conditions: rimonabant 10 mg/kg/day oral
Protocol: The effect of a long-term (2 months) treatment with rimonabant was studied in mice having an established obesity.
The study was carried out in mice receiving either a normal diet or a fatty diet. Obesity developed in the mice receiving a fatty diet and it became stabilized after 5 months. The mice were then divided up into 3 groups:
group 1: maintenance of the fatty diet and oral treatment for 2 months with rimonabant at 10 mg/kg/day, in water with 0.1% of Tween 80 (vehicle);
group 2: maintenance of the fatty diet and administration of the vehicle (water+0.1% of Tween 80);
group 3: return to a normal diet and administration of the vehicle (water+0.1% of Tween 80);
group 4 consists of mice receiving a normal diet and the vehicle from the start.

obese patients [1] = test: Clinical trial of rimonabant on the lipid parameters, 4 weeks of treatment, obese patients; format: in vivo, human; conditions: for Improvement in metabolic syndrome / Weight loss / Decrease in triglycerides ≧10% / Increase in HDLc ≧10% / Blood glucose level: obese patients; for Improvement in metabolic syndrome: ATP III definition; for Weight loss: low-calorie diet; for Decrease in triglycerides ≧10% / Increase in HDLc ≧10%: share of patients; for Blood glucose level: signed values (change)
Protocol: A clinical trial was carried out for 4 weeks on 287 obese patients whose body mass index (BMI) was between 30 and 40. After having received the placebo for 2 weeks, the patients were randomized so as to receive doses of 5, 10 or 20 mg/day of rimonabant or the placebo.
There was a check-up visit 4 weeks after the end of the treatment.
For the duration of the study, the patients were asked to follow a low-calorie diet (deficit of 500 kcal/day).

obese fa/fa Zucker rats = test: Effect of rimonabant on steatosis and steatohepatitis in obese rats; format: in vivo; conditions: rimonabant 30 mg/kg/day oral, 2 months
Protocol: The effect of rimonabant on steatosis and steatohepatitis was studied in obese fa/fa Zucker rats.
For this study, 3 groups are formed: • thin rats/vehicle group: thin Zucker rats treated with the vehicle (water and 0.1% Tween 80); • obese rats/vehicle group: obese fa/fa Zucker rats treated with the vehicle (water and 0.1% Tween 80); • obese rats/rimonabant group: obese fa/fa Zucker rats treated orally for 2 months with rimonabant at 30 mg/kg/day, in the vehicle (water and 0.1% Tween 80).
After 2 months of treatment, the body weight and the weight of the liver are measured for each rat, and a histopathological analysis of the fat load in the livers is carried out.

[2] = test system: obese individuals with dyslipidaemias; test: Rio Lipids clinical study, 12 months, obese individuals with dyslipidaemias; format: in vivo, human
Protocol: The Rio Lipids clinical study, carried out for 12 months in 1036 obese individuals with dyslipidaemias, compares the effect of rimonabant at a dose of 20 mg, versus a placebo product, in weight reduction, improvement in the lipid parameters and prevalence of metabolic syndrome. The treated group and the placebo group are subjected to a low-calorie diet.

obese patients [3] = conditions: clinical studies, Le Fur 2003; Heshmati et al. 2001; cited from earlier work
[4] = group 1: obese mice kept on fatty diet
[5] = group 1: obese mice, fatty diet
[6] = rimonabant groups 5, 10, 20 mg/day taken together

## Cc1c(C(=O)NN2CCCCC2)nn(-c2ccc(Cl)cc2Cl)c1-c1ccc(Cl)cc1 [rimonabant, N-piperidino-5-(4-chlorophenyl)-1-(2,4-dichlorophenyl)-4-methylpyrazole-3-carboxamide]
Obese mice; [4]
  HDLc/total cholesterol: 62.2 ± 0.5 %
  LDLc/total cholesterol: 5.5 ± 0.3 %
Obese mice; [5]
  glucose blood level: decrease
  insulin blood level: decrease
  leptin blood level: decrease
Obese patients [1]; 5 mg/d rimonabant
  Improvement in metabolic syndrome: 42%
  Weight loss: 3.4 * kg
  Decrease in triglycerides ≧10%: 36%
  Increase in HDLc ≧10%: 43%
  Blood glucose level: −0.09 ** mmol/1
Obese patients [1]; 10 mg/d rimonabant
  Improvement in metabolic syndrome: 39%
  Weight loss: 3.7 * kg
  Decrease in triglycerides ≧10%: 34%
  Increase in HDLc ≧10%: 45%
  Blood glucose level: −0.02 *** mmol/1
Obese patients [1]; 20 mg/d rimonabant
  Improvement in metabolic syndrome: 21%
  Weight loss: 4.5 * kg
  Decrease in triglycerides ≧10%: 51%
  Increase in HDLc ≧10%: 44%
  Blood glucose level: +0.03 mmol/1
Obese patients [1]; [6]
  blood glucose level (overall statement): remains stable or decreases discretely
  metabolic syndrome as defined by ATP III (overall statement): tendency for the metabolic syndrome to improve
  triglycerides (overall statement): tendency for the triglycerides to decrease
Obese fa/fa Zucker rats
  Liver weight/body weight ratio: 3.86 ± 0.07 %
  decrease of the increase in the liver weight/body weight ratio seen in obese/vehicle rats: 80%
  fat overload in the liver (histopathological analysis): disappearance of this fat overload
[2]; rimonabant 20 mg group, before the year of treatment
  adiponectin, starting level: 5.8 ± 2.7 µg/mL
[2]; rimonabant 20 mg, 12 months
  adiponectin at the end of the year of treatment: 8.2 ± 4.2 µg/mL
[2]; rimonabant 20 mg, 12 months, low-calorie diet
  increase in the HDLc level exceeding that of the placebo group: 11.3±1.7%
[2]; rimonabant 20 mg, 12 months, low-calorie diet, p<0.001
  decrease in the triglyceride level exceeding that of the placebo group: 12.2±3.7
[2]; rimonabant 20 mg, 12 months, low-calorie diet, p≦0.001
  weight loss greater than that observed in the placebo group: 6.3 ± 0.5 kg
[2]; rimonabant 20 mg, 12 months, p<0.001 vs placebo
  patients who stopped showing the metabolic syndrome characteristics: 60.2%
Obese patients [3]
  body weight of obese patients: reduces the body weight of obese patients
  food intake: acts on food intake from a quantitative and qualitative point of view
